Drawing on patent US6972296B2, “Carboxylic acid derivatives that inhibit the binding of integrins to their receptors” (Encysive Pharmaceuticals Inc., priority 1999, dated 2005), this text covers IC50 for 70 compounds.

SMILES strings stand for the structures.

In the experiment the target is T1, α4β1 integrin (Homo sapiens, UniProt P05556+P13612).
T1 construct: endogenous in cells; host or cells: Ramos cells
In words: Adhesion of calcein-labeled Ramos cells to CS1 (fibronectin) peptide conjugated ovalbumin. Format: cell-based. The settings on record: Table 7; Ramos cell adhesion to CS1 conjugated ovalbumin; dose required to give 50% inhibition. A digest of the protocol: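 Calcein AM-labelled Ramos cells (2.5×10^5/well) with compound, up to 100 μM, added to plates coated with CS1 peptide–ovalbumin (0.5 μg/ml) and blocked with 3% BSA. Binding buffer TBS pH 7.5 with 1 mM each MgCl2, CaCl2, MnCl2; 30 min, 37 °C. After washes, adherent cells lysed and read fluorometrically; […].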

T1 sequence (P13612 34-1032): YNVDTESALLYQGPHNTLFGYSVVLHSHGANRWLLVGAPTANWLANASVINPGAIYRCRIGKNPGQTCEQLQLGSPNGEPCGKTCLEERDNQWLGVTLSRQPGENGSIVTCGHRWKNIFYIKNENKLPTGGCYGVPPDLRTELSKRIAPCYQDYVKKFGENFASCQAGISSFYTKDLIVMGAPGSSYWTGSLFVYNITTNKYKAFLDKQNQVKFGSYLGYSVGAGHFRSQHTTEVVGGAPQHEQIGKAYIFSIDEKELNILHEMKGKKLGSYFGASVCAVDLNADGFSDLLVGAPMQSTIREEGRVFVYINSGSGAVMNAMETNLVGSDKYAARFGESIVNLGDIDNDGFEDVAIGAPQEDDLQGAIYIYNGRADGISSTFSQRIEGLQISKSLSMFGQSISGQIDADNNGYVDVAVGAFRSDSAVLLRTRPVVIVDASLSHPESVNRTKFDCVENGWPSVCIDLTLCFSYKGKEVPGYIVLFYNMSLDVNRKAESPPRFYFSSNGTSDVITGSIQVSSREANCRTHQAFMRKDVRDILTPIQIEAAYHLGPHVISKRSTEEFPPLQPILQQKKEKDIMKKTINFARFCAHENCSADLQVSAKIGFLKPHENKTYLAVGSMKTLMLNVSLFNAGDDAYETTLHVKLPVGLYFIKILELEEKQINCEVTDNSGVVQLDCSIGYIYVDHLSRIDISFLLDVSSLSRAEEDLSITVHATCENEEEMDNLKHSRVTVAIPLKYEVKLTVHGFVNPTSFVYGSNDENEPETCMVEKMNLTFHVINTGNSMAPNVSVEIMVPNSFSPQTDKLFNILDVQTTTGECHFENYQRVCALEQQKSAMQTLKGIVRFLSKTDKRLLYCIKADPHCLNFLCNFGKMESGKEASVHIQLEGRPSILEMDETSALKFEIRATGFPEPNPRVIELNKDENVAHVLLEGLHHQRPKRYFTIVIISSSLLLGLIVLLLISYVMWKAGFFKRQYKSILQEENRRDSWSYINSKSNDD
T1 sequence (P05556 21-798): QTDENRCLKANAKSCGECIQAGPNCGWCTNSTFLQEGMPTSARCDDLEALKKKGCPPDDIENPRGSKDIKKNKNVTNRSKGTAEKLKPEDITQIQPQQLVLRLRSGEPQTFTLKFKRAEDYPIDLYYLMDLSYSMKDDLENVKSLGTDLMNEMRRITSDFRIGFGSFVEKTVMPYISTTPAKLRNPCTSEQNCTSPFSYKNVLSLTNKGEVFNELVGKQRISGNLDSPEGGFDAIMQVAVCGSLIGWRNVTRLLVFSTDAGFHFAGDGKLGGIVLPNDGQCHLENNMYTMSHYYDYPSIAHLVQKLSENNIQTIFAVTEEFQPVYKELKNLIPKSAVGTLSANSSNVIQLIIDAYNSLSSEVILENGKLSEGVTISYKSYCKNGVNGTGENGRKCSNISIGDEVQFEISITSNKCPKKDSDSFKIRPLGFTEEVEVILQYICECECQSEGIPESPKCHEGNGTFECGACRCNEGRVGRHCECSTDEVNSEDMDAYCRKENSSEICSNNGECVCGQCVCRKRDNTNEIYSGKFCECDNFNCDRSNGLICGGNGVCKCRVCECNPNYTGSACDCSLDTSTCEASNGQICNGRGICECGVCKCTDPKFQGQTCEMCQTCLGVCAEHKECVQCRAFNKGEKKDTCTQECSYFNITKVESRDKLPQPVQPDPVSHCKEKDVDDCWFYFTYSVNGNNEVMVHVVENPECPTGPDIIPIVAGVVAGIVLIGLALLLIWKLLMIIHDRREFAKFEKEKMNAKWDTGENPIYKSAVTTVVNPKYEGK

As to `O=C(O)CC(NC(=O)Nc1c(O)c2c(n(Cc3ccccc3Cl)c1=O)CCC2)c1ccc(-c2ccccc2)cc1` (stereo not shown), the IC50 was 30 nM. With `CSc1ccc(C(CC(=O)O)NC(=O)Nc2c(O)c(C)cn(Cc3ccccc3Cl)c2=O)cc1` (stereo not shown), the IC50 is 15 nM. For the compound `CCOc1cccc(Cl)c1Cn1cc(C)c(O)c(NC(=O)NC(CC(=O)O)c2ccco2)c1=O` (stereo not shown), the IC50 was 8 nM. As for `Cc1cn(Cc2ccccc2Cl)c(=O)c(NC(=O)NC(CC(=O)O)c2ccc(C3CC3)cc2)c1O` (stereo not shown), the figure is 35 nM; as for `Cc1cn(Cc2ccccc2Cl)c(=O)c(NC(=O)N[C@H](c2ccccc2)c2nnn[nH]2)c1O`, above 10000 nM. Next, `Cc1ccc([C@H](Cc2nnn[nH]2)NC(=O)Nc2c(O)c(C)cn(Cc3ccccc3Cl)c2=O)cc1`: 6000 nM. Next, `Cc1ccc([C@@H](NC(=O)Nc2c(O)c(C)cn(Cc3ccccc3Cl)c2=O)[C@H](C)C(=O)O)cc1`: 1500 nM.

For the compound `C[C@H](CC(=O)O)NC(=O)Nc1c(O)c2c(n(Cc3ccccc3Cl)c1=O)CCC2`, the IC50 was 15 nM. `O=C(O)C[C@H](NC(=O)Nc1c(O)c2c(n(Cc3ccccc3Cl)c1=O)CCC2)c1cccc(-c2ccccc2)c1`: the IC50 was 17 nM. In the case of `CCOc1ncc([C@H](CC(=O)O)NC(=O)Nc2c(O)c3c(n(Cc4ccccc4Cl)c2=O)CCC3)c(OCC)n1`, the IC50 is 15 nM. Next, `Cc1ccc([C@H](CC(=O)O)NC(=O)Nc2c(O)c(C)cn(Cc3cc(F)ccc3Cl)c2=O)cc1`: 5 nM; `CCOc1cccc([C@H](CC(=O)O)NC(=O)Nc2c(O)c(C)cn(Cc3c(Cl)cccc3OCC(F)(F)F)c2=O)c1`: 4 nM.

As to `CCOc1cccc([C@H](CC(=O)O)NC(=O)Nc2c(O)c3c(n(Cc4c(Cl)cccc4OCC)c2=O)CCC3)c1`, the IC50 is 2 nM.

As for `CCOc1cccc(Cl)c1Cn1c2c(c(O)c(NC(=O)N[C@@H](CC(=O)O)c3ccc4cc(OC)ccc4c3)c1=O)CCC2`, the IC50 is 2 nM. As for `CCCOc1cccc([C@H](CC(=O)O)NC(=O)Nc2c(O)c(C)cn(Cc3c(Cl)cccc3OCC)c2=O)c1`, the figure is 3 nM; as for `CCOc1cccc([C@H](CC(=O)O)NC(=O)Nc2c(O)c(C)cn(Cc3c(Cl)cccc3OCC(C)C)c2=O)c1`, 14 nM; as for `Cc1cccc(Cl)c1Cn1c2c(c(O)c(NC(=O)N[C@@H](CC(=O)O)c3ccc4c(c3)CCC4)c1=O)CCC2`, 10 nM.

As for `Cc1cccc(Cl)c1Cn1c2c(c(O)c(NC(=O)N[C@@H](CC(=O)O)c3cccc(OC(C)C)c3)c1=O)CCC2`, the IC50 was 10 nM.

On to `CCCOc1cccc(Cl)c1Cn1cc(C)c(O)c(NC(=O)N[C@@H](CC(=O)O)c2cccc(OCC)c2)c1=O`, for which the IC50 is 5 nM. `O=C(O)C[C@H](NC(=O)Nc1c(O)c2c(n(Cc3ccccc3Cl)c1=O)CCC2)c1ccc2c(c1)CCC2`: the IC50 was 8 nM. As for `COc1ccc([C@H](CC(=O)O)NC(=O)Nc2c(O)c(C)cn(Cc3ccccc3Cl)c2=O)cc1C`, the figure is 9 nM.

Turning to `Cc1cn(Cc2ccccc2Cl)c(=O)c(NC(=O)N[C@@H](CC(=O)O)c2ccc3c(c2)CCO3)c1O`, the IC50 was 6 nM. As for `Cc1cn(Cc2ccccc2Cl)c(=O)c(NC(=O)N[C@@H](CC(=O)O)c2cccc3ccn(C)c23)c1O`, the figure is 30 nM. As for `CCCc1ccc([C@H](CC(=O)O)NC(=O)Nc2c(O)c3c(n(Cc4c(C)cccc4Cl)c2=O)CCC3)cc1`, the figure is 20 nM; as for `Cc1cccc(Cl)c1Cn1c2c(c(O)c(NC(=O)N[C@@H](CC(=O)O)c3ccc(C4CC4)cc3)c1=O)CCC2`, 19 nM.

With `Cc1cccc(Cl)c1Cn1c2c(c(O)c(NC(=O)N[C@@H](CC(=O)O)c3cccc(OC(F)F)c3)c1=O)CCC2`, the IC50 is 3 nM. Next, `Cc1cccc(Cl)c1Cn1c2c(c(O)c(NC(=O)N[C@@H](CC(=O)O)c3cccc(OC(F)(F)F)c3)c1=O)CCC2`: 11 nM; `CCN(CC)c1cccc([C@H](CC(=O)O)NC(=O)Nc2c(O)c3c(n(Cc4c(C)cccc4Cl)c2=O)CCC3)c1`: 10 nM; `Cc1cn(Cc2c(C)cccc2Cl)c(=O)c(NC(=O)N[C@@H](CC(=O)O)c2ccc3c(ccn3C)c2)c1O`: 4 nM. Consider `CCc1ccc([C@H](CC(=O)O)NC(=O)Nc2c(O)c3c(n(Cc4c(C)cccc4Cl)c2=O)CCC3)cc1`, for which the IC50 is 15 nM. Next, `Cc1cccc([C@H](CC(=O)O)NC(=O)Nc2c(O)c3c(n(Cc4c(C)cccc4Cl)c2=O)CCC3)c1`: 4 nM. With `Cc1cccc(Cl)c1Cn1c2c(c(O)c(NC(=O)N[C@@H](CC(=O)O)c3ccccc3)c1=O)CCC2`, the IC50 is 17 nM. Next, `COc1ccc([C@H](CC(=O)O)NC(=O)Nc2c(O)c3c(n(Cc4c(C)cccc4Cl)c2=O)CCC3)cc1F`: 3 nM; `O=C(O)C[C@H](NC(=O)Nc1c(O)c2c(n(Cc3ccccc3Cl)c1=O)CCC2)c1cccc(OC(F)(F)F)c1`: 10 nM; `O=C(O)C[C@H](NC(=O)Nc1c(O)c2c(n(Cc3ccccc3Cl)c1=O)CCC2)c1cccc(O)c1`: 8 nM. As for `O=C(O)C[C@H](NC(=O)Nc1c(O)c2c(n(Cc3ccccc3Cl)c1=O)CCC2)c1ccc(OC(F)F)cc1`, the figure is 13 nM; as for `O=C(O)C[C@H](NC(=O)Nc1c(O)c2c(n(Cc3ccccc3Cl)c1=O)CCC2)c1ccc(OC(F)(F)F)cc1`, 13 nM; as for `O=C(O)C[C@H](NC(=O)Nc1c(O)c2c(n(Cc3ccccc3Cl)c1=O)CCC2)c1cccc(F)c1`, 16 nM. `O=C(O)C[C@H](NC(=O)Nc1c(O)c2c(n(Cc3ccccc3Cl)c1=O)CCC2)c1ccc(C2CC2)cc1`: the IC50 was 25 nM. Next, `CCOc1cc([C@H](CC(=O)O)NC(=O)Nc2c(O)c3c(n(Cc4ccccc4Cl)c2=O)CCC3)ccc1-c1ccccc1`: 20 nM; `O=C(O)C[C@H](NC(=O)Nc1c(O)c2c(n(Cc3ccccc3Cl)c1=O)CCC2)c1cccc(C(F)F)c1`: 4 nM; `O=C(O)C[C@H](NC(=O)Nc1c(O)c2c(n(Cc3ccccc3Cl)c1=O)CCC2)c1cc(F)cc(F)c1`: 7 nM. As for `O=C(O)C[C@H](NC(=O)Nc1c(O)c2c(n(Cc3ccccc3Cl)c1=O)CCC2)c1cnc2ccccc2c1`, the figure is 22 nM. As for `CC1(C)Cc2cc([C@H](CC(=O)O)NC(=O)Nc3c(O)c4c(n(Cc5ccccc5Cl)c3=O)CCC4)ccc2O1`, the figure is 3 nM; as for `CC(C)c1ccc([C@H](CC(=O)O)NC(=O)Nc2c(O)c3c(n(Cc4ccccc4Cl)c2=O)CCC3)cc1`, 17 nM. Consider `COc1c(C)cc([C@H](CC(=O)O)NC(=O)Nc2c(O)c3c(n(Cc4ccccc4Cl)c2=O)CCC3)cc1C`, for which the IC50 was 11 nM. As for `O=C(O)C[C@H](NC(=O)Nc1c(O)c2c(n(Cc3ccccc3Cl)c1=O)CCC2)c1cccc(OC(F)(F)C(F)F)c1`, the figure is 4 nM; as for `CCCc1ccc([C@H](CC(=O)O)NC(=O)Nc2c(O)c3c(n(Cc4ccccc4Cl)c2=O)CCC3)cc1`, 17 nM. Turning to `CCc1ccc([C@H](CC(=O)O)NC(=O)Nc2c(O)c3c(n(Cc4ccccc4Cl)c2=O)CCC3)cc1`, the IC50 was 8 nM. Next, `O=C(O)C[C@H](NC(=O)Nc1c(O)c2c(n(Cc3ccccc3Cl)c1=O)CCC2)c1ccc(F)cc1`: 9 nM; `COc1ccc([C@H](CC(=O)O)NC(=O)Nc2c(O)c3c(n(Cc4ccccc4Cl)c2=O)CCC3)cc1F`: 3 nM. For the compound `CCn1c2ccccc2c2cc([C@H](CC(=O)O)NC(=O)Nc3c(O)c4c(n(Cc5ccccc5Cl)c3=O)CCC4)ccc21`, the IC50 was 13 nM. As for `Cc1cn(Cc2ccccc2Cl)c(=O)c(NC(=O)N[C@@H](CC(=O)O)c2cccc(-c3ccccc3C(F)(F)F)c2)c1O`, the figure is 157 nM; as for `Cc1cn(Cc2ccccc2Cl)c(=O)c(NC(=O)N[C@@H](CC(=O)O)c2ccc(OC3CC3)cc2)c1O`, 6 nM; as for `Cc1cn(Cc2ccccc2Cl)c(=O)c(NC(=O)N[C@@H](CC(=O)O)c2cccc(-c3ccccc3F)c2)c1O`, 25 nM. As for `Cc1cn(Cc2ccccc2Cl)c(=O)c(NC(=O)N[C@@H](CC(=O)O)c2ccccc2F)c1O`, the figure is 10 nM; as for `CCn1c2ccccc2c2cc([C@H](CC(=O)O)NC(=O)Nc3c(O)c(C)cn(Cc4ccccc4Cl)c3=O)ccc21`, 23 nM. `Cc1cn(Cc2ccccc2Cl)c(=O)c(NC(=O)N[C@@H](CC(=O)O)c2cnc3ccccc3c2)c1O`: the IC50 was 22 nM.

Turning to `Cc1cn(Cc2ccccc2Cl)c(=O)c(NC(=O)N[C@@H](CC(=O)O)c2ccc(C(C)C)cc2)c1O`, the IC50 was 175 nM. Turning to `CCOc1cc([C@H](CC(=O)O)NC(=O)Nc2c(O)c(C)cn(Cc3ccccc3Cl)c2=O)ccc1-c1ccccc1`, the IC50 is 25 nM. As for `Cc1cn(Cc2ccccc2Cl)c(=O)c(NC(=O)N[C@@H](CC(=O)O)c2cccc(O)c2)c1O`, the figure is 9 nM; as for `Cc1cc(C)cc(-c2cccc([C@H](CC(=O)O)NC(=O)Nc3c(O)c(C)cn(Cc4ccccc4Cl)c3=O)c2)c1`, 50 nM; as for `Cc1ccc(-c2cccc([C@H](CC(=O)O)NC(=O)Nc3c(O)c(C)cn(Cc4ccccc4Cl)c3=O)c2)cc1`, 23 nM. On to `Cc1cn(Cc2ccccc2Cl)c(=O)c(NC(=O)N[C@@H](CC(=O)O)c2ccccc2)c1O`, for which the IC50 is 15 nM.

Turning to `CCCc1ccc([C@H](CC(=O)O)NC(=O)Nc2c(O)c(C)cn(Cc3ccccc3Cl)c2=O)cc1`, the IC50 was 12 nM. With `CCc1ccc([C@H](CC(=O)O)NC(=O)Nc2c(O)c(C)cn(Cc3ccccc3Cl)c2=O)cc1`, the IC50 is 30 nM. Next, `Cc1ccccc1-c1cccc([C@H](CC(=O)O)NC(=O)Nc2c(O)c(C)cn(Cc3ccccc3Cl)c2=O)c1`: 20 nM; `Cc1ccccc1[C@H](CC(=O)O)NC(=O)Nc1c(O)c(C)cn(Cc2ccccc2Cl)c1=O`: 267 nM. Next, `Cc1cn(Cc2ccccc2Cl)c(=O)c(NC(=O)N[C@@H](CC(=O)O)c2ccc3c(c2)CCC3)c1O`: 18 nM; `Cc1cccc(-c2cccc([C@H](CC(=O)O)NC(=O)Nc3c(O)c(C)cn(Cc4ccccc4Cl)c3=O)c2)c1`: 18 nM.
